Source: patent US20120035247A1, “RNA Interference Mediated Inhibition of Signal Transducer and Activator of Transcription 6 (STAT6) Gene Expression Using Short Interfering Nucleic Acid (siNA)” (Merck Sharp & Dohme Corp., priority 2009, published 2012)
[invAb] = inverted abasic unit; m = 2'-O-methyl; r = 2'-OH (RNA); f = 2'-fluoro

Legend:
STAT6 protein = experiment: STAT6 Western Blot after 6-well plate transfection of A549 cells; assay type: cell-based, human; conditions: STAT6 protein band density, 72 h post-transfection, average ±S.D., n = 3
Procedure: A549 cells were plated in 6-well plates at final counts of 70,000 cells/well in 2 ml of complete growth media. Transfection was performed using 2.5 uL of RNAiMax per well. Final concentration of siNAs was 30 nM (screen) and 30, 0.3, and 0.003 nM (dose response study). Protein lysates were harvested 24, 48, and 72 hours post-transfection (screen) and 72 hours post-transfection (dose response study). Protein lysates were prepared using Cell Extraction Buffer (Invitrogen, cat# FNN0011) according to manufacturer's instructions. Protein concentration was measured using a Bradford Quick Start Kit (Bio-Rad, cat#500-0205).
The protein source for the Western Blot experiments were from transfection of A549 cells in a 6 well plate, as described above.
Protein samples were diluted 1:1 in 2× Laemmli buffer with 5% 13-mercapto-ethanol and incubated at 95° C. for 5 minutes. 40-50 ug of protein was loaded in each lane of 10% Tris-HCl gel. One lane was designated for MagicMark Protein Standard (Invitrogen # LC5602). The gel was run at 100V for approximately 2 hours. Protein was transferred to a PVDF membrane at 100V for 60 minutes. Once the transfer was finished, the membrane was blocked in 1% Casein in PBS (BioRad Cat#161-0783) for 1 hour on a plate rocker at room temperature followed by the overnight incubation at 4° C. with mouse monoclonal anti-STAT6 primary antibody (BD Biosciences, cat#611291) diluted 1:500 in 1% Casein. On the next day, the blot was washed 4×5 minutes in PBST solution and incubated for 30 minutes at room temperature with goat anti-mouse secondary antibody (Pierce Biotechnology, cat#3 31430) diluted 1:20,000 in 1% Casein. Then, the blot was washed 4×5 minutes with PBST and incubated for 1 minute with ECL Western Blotting Substrate (Pierce Biotechnology, Cat#32106). The bands were visualized on the Bio-Rad VersaDoc Imager.
The protein bands were quantified by computing their density which is defined by the ratio between the total intensity of all pixels and the area of the rectangle drawn around each band (intensity/mm^2). The density was calculated by the BioRad software.
The level of protein was quantified using the Bio-Rad VersaDoc Imager according to the protocols of that piece of equipment. A pixel count was performed in each lane using an area of identical size. Each sample was then compared to the appropriate control treated sample and converted to a percent of protein remaining compared to control.
The effects of lead siNAs on STATE protein level were compared to the effects of the universal control using a two tail Student's T-test to obtain a P value. P<0.05 was considered significant.
The siNAs and control were tested were tested at doses of 30 nM, […]. Blots were then probed with a-STAT6 and α-tubulin antibodies. All samples were harvested 72 hours post-transfection. The ratios of the treatments were then compared to the ratio of the control group using an t-test assuming unequal variances.

STAT6 mRNA = experiment: STAT6 siNA screen in mouse NIH 3T3 cells, STAT6 mRNA by quantitative RT-PCR (Taqman); assay type: cell-based; conditions: mouse NIH3T3 cells, 10 nM siNA, 24 hrs, normalized to GAPDH and non-targeting control, n = 2
Procedure, shortened: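 NIH 3T3 cells, 5000/well, transfected after 24 h with siNA (10 nM final) via RNAiMax and harvested 24 h later. STAT6 mRNA quantified by TaqMan RT-qPCR with GAPDH; knock-down by comparative Ct (2^−ΔΔCt) against non-targeting control siNA.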

29990-DC: STAT6 siNA duplex; sense SEQ ID NO: 44, antisense SEQ ID NO: 45; target GUGAAAGCCUGGUGGACAU, site 954 (sense GUGAAAGCCUGGUGGACAUTT; antisense AUGUCCACCAGGCUUUCACUU; sense: DNA at AGT, 2'-fluoro at CU, [invAb] at 5' end, 3' end, backbone not given here; antisense: sugars from the 5' end rrrfffmffmmmfffffmfmm, backbone not given here) [STAT6 siNA duplex; target GUGAAAGCCUGGUGGACAU, site 954]
Density (Intensity/mm^2), 3 pM, 72 h (STAT6 protein): 50078.4 ± 5978.2 Intensity/mm^2
Density (Intensity/mm^2), 300 pM, 72 h (STAT6 protein): 6192.2 ± 714.5 Intensity/mm^2
Density (Intensity/mm^2), 30 nM, 72 h (STAT6 protein): 1134.6 ± 362.7 Intensity/mm^2
% KD STAT6 (STAT6 mRNA): 41.6 ± 7.4%

29997-DC: STAT6 siNA duplex; sense SEQ ID NO: 58, antisense SEQ ID NO: 59; target CUACCAUGGUGCCUUCUUA, site 2262 (sense CUACCAUGGUGCCUUCUUATT; antisense UAAGAAGGCACCAUGGUAGUU; sense: DNA at AGT, 2'-fluoro at CU, [invAb] at 5' end, 3' end, backbone not given here; antisense: sugars from the 5' end rrrmmmmmfmffmfmmfmmmm, backbone not given here) [STAT6 siNA duplex; target CUACCAUGGUGCCUUCUUA, site 2262]
Density (Intensity/mm^2), 3 pM, 72 h (STAT6 protein): 49839.8 ± 2352.8 Intensity/mm^2
Density (Intensity/mm^2), 300 pM, 72 h (STAT6 protein): 5732.4 ± 1189.0 Intensity/mm^2
Density (Intensity/mm^2), 30 nM, 72 h (STAT6 protein): 3203.8 ± 1309.6 Intensity/mm^2
% KD STAT6 (STAT6 mRNA): 28.7 ± 6.1%

30008-DC: STAT6 siNA duplex; sense SEQ ID NO: 80, antisense SEQ ID NO: 81; target CUGCUCUGCUCAGAUGUGA, site 2549 (sense CUGCUCUGCUCAGAUGUGATT; antisense UCACAUCUGAGCAGAGCAGUU; sense: DNA at AGT, 2'-fluoro at CU, [invAb] at 5' end, 3' end, backbone not given here; antisense: sugars from the 5' end rrrfmfffmmmfmmmmfmmmm, backbone not given here) [STAT6 siNA duplex; target CUGCUCUGCUCAGAUGUGA, site 2549]
Density (Intensity/mm^2), 3 pM, 72 h (STAT6 protein): 58808.1 ± 5023.9 Intensity/mm^2
Density (Intensity/mm^2), 300 pM, 72 h (STAT6 protein): 8356.8 ± 2186.6 Intensity/mm^2
Density (Intensity/mm^2), 30 nM, 72 h (STAT6 protein): 4254 ± 1579.4 Intensity/mm^2
% KD STAT6 (STAT6 mRNA): 77.9 ± 7.5%
